Assay results: patent publication US7863335B2, “Non-antibiotic intervention of chlamydial infection” (The University of Medicine and Dentistry of New Jersey, priority 2004, dated 2011)
Read-outs that look alike come from different tables or passages of the source.

What was measured:
[1] = test system: strain 434/bu of serovar L2 (L2, biovar LGV); assay: MOMP immunofluorescence of inclusion formation in L2-infected HeLa cells; format: cell-based, Chlamydia trachomatis
Method: Human cervical carcinoma HeLa cells grown on coverslips were exposed to an EB stock of strain 434/bu of serovar L2 (L2, biovar LGV) for 2 hours, washed to remove free EBs, and cultured in medium containing indicated concentrations of GM6001 plus 1 μg/ml cycloheximide, an inhibitor of eukaryotic protein synthesis which is commonly used to facilitate chlamydial growth. 40 hours later, cells were fixed with methanol, and reacted for 1 hour with a monoclonal antibody against the major outer membrane protein (MOMP) of L2. After three washes with PBS, coverslips were reacted with fluorescein isothiocyanate-conjugated goat anti-mouse IgG (Sigma, St. Louis, Mo.) for 30 min. After additional washes, coverslips were mounted onto glass slides and viewed with a Nikon Eclypse E1000 fluorescent microscope.

HeLa cells [2] = assay: DNA synthesis ([methyl-3H]thymidine incorporation) in HeLa cells; format: cell-based, Human
Method: (§1) The lack of cytotoxic activity in GM6001 was further supported by measuring DNA synthesis. Subconfluent cells grown in 24 well plates were fed with medium (0.5 ml/well) containing indicated concentrations of GM6001 for 40 hours. 2 μl of [methyl-3H]thymidine (specific activity: 20 Ci/mmole, Moravek Biochemical, Brea, Calif.) was added into the culture and incubated for 2 hours. The amount of thymidine incorporated into DNA was determined as we previously described (3).

L2 [3] = assay: Pretreatment of host HeLa cells or EBs with GM6001, immunostaining of L2 growth; format: cell-based, Chlamydia trachomatis
Method: To address whether suppression of chlamydial growth resulted from inhibition of host or bacterial enzymes, we determined the effect of pretreatment of EB and host cells with a hydroxamate on chlamydial growth. HeLa cells were cultured for 2 h with medium containing 20 °μM GM6001 and washed 3 times with medium before they were infected with a regular EB stock. Likewise, an EB stock was also incubated with GM6001, washed, and added to untreated HeLa cells. As control, GM6001 (final concentration: 20 μM) was added into and maintained in the culture medium after the attachment/entry period.

[4] = test system: Salmonella Enterica Serovar Typhimurium; assay: Intracellular growth of S. enterica in HeLa cells (colony-forming units); format: cell-based; settings: 20 μM, 1.5 and 6 h, 50 μg/ml gentamycin
Method: To assess whether its intracellular growth is affected by the inhibitor, HeLa cells were infected with a fresh culture of S. enterica grown to stationary phase as previously described (16). After washes to remove free bacteria, the cells were cultured with medium containing 50 μg/ml gentamycin (to kill any residual free bacteria) plus or minus 20 μM GM6001 for 1.5 and 6 h. Gentamycin was then removed by washes. Intracellular bacteria were released by 0.1% Triton X-100, serially diluted and plated onto LB agar plates. After overnight incubation at 37° C., colony-forming units were scored.

[5] = test system: strain UW-3/Cx of serovar D (biovar trachomatis); assay: Chlamydial lipopolysacharide immunostaining of inclusion formation, serovar D in HeLa cells; format: cell-based, Chlamydia trachomatis
A549 cells = assay: DNA synthesis ([methyl-3H]thymidine incorporation) in A549 cells; format: cell-based, Human
Method: as §1

[6] = test system: Salmonella Enterica Serovar Typhimurium; assay: Growth of S. enterica as free-living organism in liquid medium (OD600); format: cell-based
MoPn (biovar mouse) = assay: Chlamydial DNA synthesis of MoPn (biovar mouse); format: cell-based, Chlamydia trachomatis; settings: dose response
Method: We next tested whether GM6001 was also effective against the remaining two biovars of C. trachomatis. […] The effect of GM6001 on biovar mouse was determined by measuring chlamydial DNA synthesis with procedures that we previously detailed (1, 3).

L2 (biovar LGV) [7] = assay: Dot blot analysis of MOMP, L2 growth in A549 cells; format: cell-based, Chlamydia trachomatis; settings: 40 hours after infection, 1 μg/ml cycloheximide
Method: Infection of A549 cells and inhibitor treatment were carried out as described above. 40 hours after infection, cells were lysed in 200 μl of H2O, a 50 μl sample of the resulting EB/RB extract was blotted onto Zeta Probe membrane (Bio-Rad), and sequentially reacted with the L2 MOMP antibody described above, and horseradish peroxidase-conjugated rabbit anti-mouse IgG.

L2 (biovar LGV) [8] = assay: Live images (light microscope) of inclusion formation in L2-infected HeLa cells; format: cell-based, Chlamydia trachomatis; settings: in both the presence and absence of cycloheximide
From the text: The inhibition of L2 growth by GM6001 could be viewed directly under a light microscope without immunostaining. Shown in FIG. 1C are images obtained from live cultures.

L2 [9] = assay: Dot blot analysis of MOMP, L2 growth in HeLa cells; format: cell-based, Chlamydia trachomatis
[10] = test system: L. delbrueckii (ATCC 12315); assay: Growth of L. delbrueckii in liquid culture (OD600); format: cell-based, Lactobacillus delbrueckii; settings: 20 μM, hourly up to 5 h postinoculation
Method: (§2) An E. coli MG1655 colony was inoculated into 10 ml LB broth, which was then divided into 2 ml aliquots. After overnight culture, OD600 measurements were taken. An overnight L. delbrueckii (ATCC 12315) culture was diluted 1:100, and cultured in the presence or absence of 20 μM of GM 6001. OD600 values were measured hourly up to 5 h postinoculation.

HeLa cells [11] = assay: Cytotoxicity judged by cellular morphology of HeLa cells; format: cell-based, Human
Chlamydia = assay: Titration of infectious EBs produced by infected HeLa cells; format: cell-based, Chlamydia trachomatis
Method: Inhibition of chlamydial growth was obtained when GM6001 and TAPI-0 was added to cultures at the end of the two hour attachment/entry period (FIGS. 1-3), a point where free unbound EBs had been removed by extensive washes. The entry-independent inhibition was also seen by titrating infectious EBs produced by infected HeLa cells (FIG. 6). […] At this point, EBs have already completed the entry phase and have differentiated into RBs in inclusions. Even when GM6001 treatment was started 24 h after infection, a point where the number of RBs peaks during the chlamydial developmental cycle, a 99% reduction in EB production was observed (FIG. 6).

E. coli MG1655 = assay: Growth of E. coli in LB broth (OD600); format: cell-based, Escherichia coli; settings: overnight culture, concentrations indicated in FIG. 4A
Method: as §2

CNC(=O)[C@H](Cc1c[nH]c2ccccc12)NC(=O)[C@@H](CC(=O)NO)CC(C)C [GM6001]
number of inclusions (L2 inclusion formation) ([1]; increasing concentrations of GM6001 plus 1 μg/ml cycloheximide, 40 hours): number of inclusions declined progressively
DNA synthesis (thymidine incorporated into DNA) (HeLa cells [2]): did not exhibit any inhibitory effect
effect on cycloheximide-induced inhibition of DNA synthesis (HeLa cells [2]): no synergistic or additive effect
chlamydial infection after pretreatment of EB stock (L2 [3]; EB stock incubated with GM6001, washed, added to untreated HeLa cells): completely ineffective
chlamydial infection after pretreatment of host HeLa cells (L2 [3]; HeLa cells cultured 2 h with 20 μM GM6001, washed 3 times before infection): completely ineffective
growth of S. enterica inside HeLa cells (colony-forming units) [4]: did not inhibit
inclusion formation by serovar D [5]: efficiently suppressed inclusion formation
DNA synthesis (thymidine incorporated into DNA) (A549 cells): did not exhibit any inhibitory effect
effect on cycloheximide-induced inhibition of DNA synthesis (A549 cells): no synergistic or additive effect
growth of S. enterica in liquid medium [6]: had no effect
inhibition of MoPn growth (chlamydial DNA synthesis) (MoPn (biovar mouse)): dose-response curve of GM6001 inhibition of MoPn growth was obtained
MOMP signal (L2 growth) (L2 (biovar LGV) [7]): no signal was detected
inhibition of L2 growth / inclusion formation in live cultures (L2 (biovar LGV) [8]): effective against chlamydial infection
chlamydial (L2) growth, MOMP dot blot (L2 [9]): no MOMP signals
growth of Lactobacillus delbrueckii (OD600) [10]: did not show any effects
cytotoxic effects based on morphology (HeLa cells [11]; uninfected or L2-infected HeLa cells): no apparent cytotoxic effects
inhibition at 20 µM (Chlamydia; Chlamydia, HeLa, 20 μM, added at the end of attachment/entry period, read-out: inhibition of EB production): > 100%
inhibition of EB production (Chlamydia; added 8 h after infection): comparable inhibitory activity
reduction in EB production (Chlamydia; treatment started 24 h after infection): 99%

CC(C)C[C@H](CC(=O)NO)C(=O)N[C@@H](Cc1ccc2ccccc2c1)C(=O)N[C@@H](C)C(N)=O [TAPI-0, N-(R)-[2-(Hydroxyaminocarbonyl)methyl]-4-methylpentanoyl-L-naphthylalanyl-L-alanine amide]
inhibition of L2 infection (MOMP immunofluorescence) ([1]; at both 7.5 and 15 μM): strongly inhibited
growth of E. coli (OD600) (E. coli MG1655): did not show any effects

C[C@@H]1C[C@@H]([C@H](O)CC2CC(=O)NC(=O)C2)C(=O)[C@@H](C)C1 [cycloheximide]
DNA synthesis (thymidine incorporated into DNA) (HeLa cells [2]; uninfected HeLa cells, 40 hours treatment): effectively inhibited DNA synthesis activity
DNA synthesis (thymidine incorporated into DNA) (A549 cells; uninfected A549 cells, 40 hours treatment): effectively inhibited DNA synthesis activity

CNC(=O)[C@H](Cc1c[nH]c2ccccc12)NC(=O)[C@H](CC(C)C)NC(=O)OC(C)(C)C [GM6001 Negative Control, N-t-butoxycarbonyl-L-leucyl-L-tryptophan methylamide]
DNA synthesis (thymidine incorporated into DNA) (HeLa cells [2]): no adverse effect
chlamydial (L2) growth, MOMP dot blot (L2 [9]): no detectable effect
adverse effect on morphology of HeLa cells (HeLa cells [11]; data not shown): no adverse effect
